Legend:
Saccharomyces cerevisiae = assay: Inhibition of yeast chitin synthase at 250 uM
[1] = Inhibition of yeast chitin synthase; design: species or system Saccharomyces cerevisiae

inhibition (Saccharomyces cerevisiae) [%]	IC50 [1] [µM]	Structure (SMILES)
91	7.93	CCCCC1(CCCC)OC(c2ccccc2Cl)=NN1C(C)=O
86	5.6	CCCCC1(CCCC)OC(c2ccc(Cl)cc2Cl)=NN1C(=O)NC(=O)c1ccccc1Cl
68	–	CCCCC1(CCCC)OC(c2cc(C)cc(C)c2)=NN1C(C)=O
69	–	CCCCC1(CCCC)OC(c2ccc(Cl)cc2)=NN1C(C)=O
